Reference: patent publication US8236935B2, “Gem-difluorinated C-glycoside compounds derived from podophyllotoxin, their preparation and their applications” (Institut National des Sciences Appliquees de Rouen (INSA), priority 2006, dated 2012)
“And” between values parts separate entries of the source, which are not always exact repeats. Equal values may be shown once.

Key:
Type in all cases: cell-based
HT29 cells = test: cytotoxicity test, inhibition of cellular growth, HT29 cells; settings: triplicate; for inhibition percentage of cellular growth: 10^−5M
Protocol: (§1) The first cytotoxicity tests were conducted on different cell lines such as KB, PC3, MCF7 and MCF7R, SF268, HL60, HT29, A549 cells at concentrations of 10^−5M in triplicate. Podophyllotoxin 1 and etoposide 2 were also tested under the same conditions as standards.
(§2) The results are expressed as an inhibition percentage of cellular growth.

MCF7R cells = test: cytotoxicity test, inhibition of cellular growth, MCF7R cells; settings: 10^−5M, triplicate
Protocol: as §1, §2

A549 cells = test: cytotoxicity test, inhibition of cellular growth, A549 cells; settings: 10^−5M, triplicate
Protocol: as §1, §2

KB cells [1] = test: cytotoxicity test, inhibition of cellular growth, KB cells; settings: 10^−5M; for inhibition percentage of cellular growth / inhibition at 10 µM: triplicate; for inhibition at 10 µM: Homo sapiens, read-out: inhibition percentage of cellular growth
Protocol: as §1, §2

PC3 cells = test: cytotoxicity test, inhibition of cellular growth, PC3 cells; settings: triplicate; for inhibition percentage of cellular growth: 10^−5M
Protocol: as §1, §2

HL60 cells = test: cytotoxicity test, inhibition of cellular growth, HL60 cells; settings: triplicate; for inhibition percentage of cellular growth: 10^−5M
Protocol: as §1, §2

SF268 cells = test: cytotoxicity test, inhibition of cellular growth, SF268 cells; settings: triplicate; for inhibition percentage of cellular growth: 10^−5M
Protocol: as §1, §2

MCF7 cells = test: cytotoxicity test, inhibition of cellular growth, MCF7 cells; settings: 10^−5M, triplicate
Protocol: as §1, §2

KB cells [2] = test: IC50 of cytotoxicity on KB cells; settings: in duplicate (two values per cell, separated by /)
Text: The IC50 values are expressed in μM on KB cells in duplicate and were obtained for the […] leading compounds, i.e. 27a, 32a, 44a, 37a and 46a in parallel with podophyllotoxin and etoposide.

[3] = test system: KB, PC3, MCF7 and MCF7R, SF268, HL60, HT29, A549 cells; test: cytotoxicity tests on the panel of cell lines, overall comparison with standards; settings: 10^−5M
Protocol: as §1, §2

[4] = Homo sapiens, read-out: inhibition percentage of cellular growth

Row | SMILES | inhibition percentage of cellular growth (HT29 cells) [%] | inhibition percentage of cellular growth (MCF7R cells) [%] | inhibition percentage of cellular growth (A549 cells) [%] | inhibition percentage of cellular growth (KB cells [1]) [%] | inhibition percentage of cellular growth (PC3 cells) [%] | inhibition percentage of cellular growth (HL60 cells) [%] | inhibition percentage of cellular growth (SF268 cells) [%] | inhibition percentage of cellular growth (MCF7 cells) [%] | IC50 (KB cells [2]) | inhibition at 10 µM (KB cells [1]) [%] | cytotoxicity compared with etoposide and podophyllotoxin (in words) (KB cells [1]) | other results
1 | COc1cc(C2c3cc4c(cc3C(NC(=O)C(F)(F)C3(O)OC5COC(C)OC5C(O)C3O)C3COC(=O)C23)OCO4)cc(OC)c1OC (stereo not shown) [29a] | 17 | 44 | 6 | 66 | 8 | 17 | 11 | 40 | – | – | – | –
2 | COc1cc(C2c3cc4c(cc3C(NC(=O)C(F)(F)C3(O)OC5COC(C)OC5C(O)C3O)C3COC(=O)C23)OCO4)cc(OC)c1OC (stereo not shown) [29b] | 6 | 7 | 1 | 0 | 3 | 0 | 6 | 7 | – | – | – | –
3 | COc1cc([C@@H]2c3cc4c(cc3[C@@H](O[C@@H]3O[C@@H]5CO[C@@H](C)O[C@H]5[C@H](O)[C@H]3O)[C@H]3COC(=O)[C@H]23)OCO4)cc(OC)c1O [Etoposide, etoposide, reference compound] | 79 | 22 | 65 | 84 | 47 | 75 | 82 | 57 | – | – | – | –
4 | COc1cc([C@@H]2c3cc4c(cc3[C@H](O)[C@H]3COC(=O)[C@H]23)OCO4)cc(OC)c1OC [Podophyllotoxin 1, Podophyllotoxin] | – | – | – | – | – | – | – | – | 22 nM | 90 | – | inhibition at 10 µM (HT29 cells; Homo sapiens, HT-29, 10^−5M, read-out: inhibition percentage of cellular growth): 84%; inhibition at 10 µM (MCF7R cells; [4]): 55%; inhibition at 10 µM (A549 cells; [4]): 83%; IC50 (KB cells [2]; Homo sapiens, KB): 15 nM; inhibition at 10 µM (PC3 cells; Homo sapiens, PC-3, 10^−5M, read-out: inhibition percentage of cellular growth): 65%; inhibition at 10 µM (HL60 cells; Homo sapiens, HL-60, 10^−5M, read-out: inhibition percentage of cellular growth): 74%; inhibition at 10 µM (SF268 cells; Homo sapiens, SF-268, 10^−5M, read-out: inhibition percentage of cellular growth): 74%; inhibition at 10 µM (MCF7 cells; [4]): 55%
5 | COc1cc([C@@H]2c3cc4c(cc3[C@@H](NC(=O)C(F)(F)[C@]3(O)O[C@H](CO)[C@@H](O)[C@H](O)[C@H]3O)[C@H]3COC(=O)[C@H]23)OCO4)cc(OC)c1O [compound 26a] | 10 | 35 | 23 | 43 | 10 | 17 | 7 | 37 | – | – | – | –
6 | COc1cc([C@@H]2c3cc4c(cc3[C@@H](NC(=O)C(F)(F)[C@]3(O)O[C@H](CO)[C@H](O)[C@H](O)[C@H]3O)[C@H]3COC(=O)[C@H]23)OCO4)cc(OC)c1O [compound 26b] | 13 | 16 | 7 | 12 | 8 | 19 | 7 | 20 | – | – | – | –
7 | COc1cc(C2c3cc4c(cc3C(NC(=O)C(F)(F)C3(O)OC(CO)C(O)C(O)C3O)C3COC(=O)C23)OCO4)cc(OC)c1OC (stereo not shown) [compound 27a] | 87 | 70 | 78 | 91 | 63 | 79 | 65 | 53 | 3450 nM and 2550 nM | – | – | activity compared with etoposide and podophyllotoxin (in words) [3]: activity comparable with that of etoposide and of podophyllotoxin, and even better on certain cell lines
8 | COc1cc(C2c3cc4c(cc3C(NC(=O)C(F)(F)C3(O)OC(CO)C(O)C(O)C3O)C3COC(=O)C23)OCO4)cc(OC)c1OC (stereo not shown) [compound 27b] | 8 | 10 | 6 | 12 | 8 | 19 | 7 | 20 | – | – | – | –
9 | COc1cc([C@@H]2c3cc4c(cc3[C@@H](N(C)C(=O)C(F)(F)[C@]3(O)O[C@H](COCc5ccccc5)[C@@H](OCc5ccccc5)[C@H](OCc5ccccc5)[C@H]3OCc3ccccc3)C3COC(=O)[C@@H]32)OCO4)cc(OC)c1OC (stereo partly shown) [compound 31a] | – | – | – | – | – | – | – | – | – | 22 | – | –
10 | COc1cc(C2c3cc4c(cc3C(NCC(F)(F)C3(O)OC(CO)C(O)C(O)C3O)C3COC(=O)C23)OCO4)cc(OC)c1OC (stereo not shown) [compound 32a] | – | – | – | 94 | – | – | – | – | – | – | cytotoxicity close to that of etoposide and podophyllotoxin | –
11 | COc1cc([C@@H]2c3cc4c(cc3[C@@H](NC(=O)C(F)(F)C3(Cl)O[C@H](CO)[C@@H](O)[C@H](O)[C@H]3O)C3COC(=O)[C@@H]32)OCO4)cc(OC)c1OC (stereo partly shown) [compound 37a] | – | – | – | – | – | – | – | – | 306 nM | 91 | cytotoxicity close to that of etoposide and podophyllotoxin | IC50 (KB cells [2]; Homo sapiens, KB): 273 nM
12 | COc1cc([C@@H]2c3cc4c(cc3[C@@H](NC(=O)C(F)(F)[C@@H]3O[C@H](CO)[C@@H](O)[C@H](O)[C@H]3O)C3COC(=O)[C@@H]32)OCO4)cc(OC)c1OC (stereo partly shown) [compound 44a] | – | – | – | – | – | – | – | – | 341 nM | 90 | cytotoxicity close to that of etoposide and podophyllotoxin | IC50 (KB cells [2]; Homo sapiens, KB): 323 nM
13 | COc1cc(C2c3cc4c(cc3C(NCC(F)(F)C3(O)OC5COC(C)OC5C(O)C3O)C3COC(=O)C23)OCO4)cc(OC)c1OC (stereo not shown) [compound 46a] | – | – | – | 86 | – | – | – | – | 4710 nM and 6030 nM | – | cytotoxicity close to that of etoposide and podophyllotoxin | –
